According to ChEMBL document CHEMBL2390821, “Flaxseed (Linum usitatissimum L.) extract as well as (+)-secoisolariciresinol diglucoside and its mammalian derivatives are potent inhibitors of α-amylase activity” (Bioorg Med Chem Lett, 2013):
Activity calls are given as the source filed them. No cut-off for these calls is given here.

Columns and labels:
[1] = Inhibition of pig pancreas soluble alpha-amylase using 4-nitrophenyl-alpha-D-maltopentaoside as substrate after 30 mins by spectrophotometry; set-up: species or system Sus scrofa
Rattus norvegicus = species: Rattus norvegicus; test: Inhibition of immobilized rat intestinal alpha-glucosidase using 4-nitrophenyl-alpha-D-glucopyranoside as substrate assessed as enzyme activity after 30 mins by spectrophotometry relative to control; set-up: concentration or dose not given beside the values
[2] = […] inhibition of pig pancreas soluble alpha-amylase using 4-nitrophenyl-alpha-D-maltopentaoside as substrate assessed as enzyme-substrate-inhibitor dissociation constant after 30 mins by double reciprocal plot method; set-up: species or system Sus scrofa
[3] = […] inhibition of pig pancreas soluble alpha-amylase using 4-nitrophenyl-alpha-D-maltopentaoside as substrate assessed as enzyme-inhibitor dissociation constant after 30 mins by double reciprocal plot method; set-up: species or system Sus scrofa
Sus scrofa = species: Sus scrofa; test: Mixed-type inhibition of pig pancreas soluble alpha-amylase using 4-nitrophenyl-alpha-D-maltopentaoside as substrate assessed as formation of inactive enzyme-inhibitor complex after 30 mins by spectrophotometry

| IC50 [1] [µM] | Activity (Rattus norvegicus) [%] | Ki [2] [µM] | Ki [3] [µM] | inhibition (Sus scrofa) | SMILES |
| --- | --- | --- | --- | --- | --- |
| 15.7 | 74.3 |  |  |  | COc1cc(C[C@H](CO[C@@H]2O[C@H](CO)[C@@H](O)[C@H](O)[C@H]2O)[C@@H](CO[C@@H]2O[C@H](CO)[C@@H](O)[C@H](O)[C@H]2O)Cc2ccc(O)c(OC)c2)ccc1O [(+)-SECOISOLARICIRESINOLDIGLUCOSIDE] |
| 10.9 | 73.9 |  |  |  | O=C1OC[C@@H](Cc2cccc(O)c2)[C@@H]1Cc1cccc(O)c1 [(+)-ENTEROLACTONE] |
| 8.6 | 69.9 | 40.3 | 94.1 | Active | OC[C@@H](Cc1cccc(O)c1)[C@@H](CO)Cc1cccc(O)c1 [(+)-ENTERODIOL] |
|  | 34.4 |  |  |  | C[C@H]1O[C@H](O[C@H]2[C@H](O)[C@@H](O)[C@@H](O[C@H]3[C@H](O)[C@@H](O)C(O)O[C@@H]3CO)O[C@@H]2CO)[C@H](O)[C@@H](O)[C@@H]1N[C@H]1C=C(CO)[C@@H](O)[C@H](O)[C@H]1O (some centres not stated) |
| 9.5 | 72.4 |  |  |  | COc1cc(C[C@@H](CO)[C@H](CO)Cc2ccc(O)c(OC)c2)ccc1O [(+)-SECOISOLARICIRESINOL] |
